According to patent US7851590B2, “Y2 selective receptor agonists for therapeutic interventions” (7TM Pharma A/S, priority 2005, dated 2010):
pKi: −log10 of the molar value.

Columns and labels:
[1] = biological target: T1, rhesus monkey Y2 receptor (Macaca mulatta, UniProt Q9GK74); experiment: Rhesus monkey Y2 receptor affinity assay (competition binding with human 125I-PYY); parameters: The coding region of the rhesus monkey NPY-Receptors (Y1, Y2, Y4) were sub-cloned into the pcDNA3.1/Zeo vector; expressed in transfected cells; host or cells: CHO cells, stably transfected; details: CHO cells stably transfected with the rhesus monkey Y2 receptor; 12 pM human 125I-PYY, 3 hours at 4 C; read-out: Competition binding w 126I-PYY at Y2 (Ki)
T1 sequence (Q9GK74 1-381): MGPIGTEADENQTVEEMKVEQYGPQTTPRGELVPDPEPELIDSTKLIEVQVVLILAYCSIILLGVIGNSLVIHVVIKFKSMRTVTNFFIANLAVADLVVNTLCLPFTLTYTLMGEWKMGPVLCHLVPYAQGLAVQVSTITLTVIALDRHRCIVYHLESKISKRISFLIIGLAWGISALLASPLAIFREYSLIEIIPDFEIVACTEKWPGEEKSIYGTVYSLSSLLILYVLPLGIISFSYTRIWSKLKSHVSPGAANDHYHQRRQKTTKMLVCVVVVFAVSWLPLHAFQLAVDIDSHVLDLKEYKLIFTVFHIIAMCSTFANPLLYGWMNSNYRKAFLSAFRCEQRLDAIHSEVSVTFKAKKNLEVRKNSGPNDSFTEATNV
Protocol: The stable transfected CHO cells are transferred to 48-well culture plates one day prior assay at a density of 2,500 cells per well aiming at 5-8% binding of the radioactive ligand. […] Cells are washed twice in 0.5 ml of ice-cold buffer and 0.5-1 ml of lysis buffer (8 M Urea, 2% NP40 in 3 M acetic acid) is added and the bound radioactivity is counted in a gamma counter. Determinations are made in triplicates.

[2] = biological target: T1, rhesus monkey Y2 receptor; experiment: Rhesus monkey Y2 receptor potency assay (phosphatidylinositol turnover, Gqi5); type: cell-based; parameters: The coding region of the rhesus monkey NPY-Receptors (Y1, Y2, Y4) were sub-cloned into the pcDNA3.1/Zeo vector; expressed in transfected cells; host or cells: COS-7 cells, transiently transfected; details: COS-7 cells transiently transfected with rhesus monkey Y2 receptor and Gqi5; μM; read-out: IP3 EC50 values at Y2
Protocol: Determinations are made in duplicates. EC50 values were calculated using a standard pharmacological data handling software, Prism 3.0 (graphPad Sofware, San Diego, USA).

For `CC[C@H](C)[C@H](NC(=O)[C@H](Cc1ccc(O)cc1)NC(=O)[C@H](CCCNC(=N)N)NC(=O)[C@H](CCCNC(=N)N)NC(=O)[C@H](CC(C)C)NC(=O)[C@H](CC(=O)O)NC(=O)[C@H](C)NC(=O)[C@H](C)NC(=O)[C@H](Cc1ccc(O)cc1)NC(=O)[C@H](CCC(N)=O)NC(=O)[C@H](C)NC(=O)[C@H](CCSC)NC(=O)[C@H](CCC(N)=O)NC(=O)[C@H](CCC(=O)O)NC(=O)[C@@H]1CCCN1C(=O)[C@@H](NC(=O)[C@H](C)NC(=O)[C@H](CC(N)=O)NC(=O)[C@H](CC(=O)O)NC(=O)CNC(=O)[C@@H]1CCCN1C(=O)[C@H](Cc1ccc(O)cc1)NC(=O)[C@@H](NC(=O)[C@@H]1CCCN1C(=O)[C@H](CCC(=O)O)NC(=O)[C@H](CC(C)C)NC(=O)[C@@H]1CCCN1C(=O)[C@H](C)N)C(C)C)[C@@H](C)O)C(=O)N[C@@H](CC(N)=O)C(=O)N[C@@H](CCSC)C(=O)N[C@@H](CC(C)C)C(=O)N[C@H](C(=O)N[C@@H](CCCNC(=N)N)C(=O)N1CCC[C@H]1C(=O)N[C@@H](CCCNC(=N)N)C(=O)N[C@@H](Cc1ccc(O)cc1)C(N)=O)[C@@H](C)O` [PP, Pancreatic Polypeptide], the pKi [1] was less than 6.00 and the EC50 [2] was greater than 1 µM.
